Measured values reported in patent publication US6500610B1, “Methods for identifying compounds for inhibiting of neoplastic lesions, and pharmaceutical compositions containing such compounds” (Cell Pathways, INC, priority 1997, dated 2002).
Read-outs that look alike come from different tables or passages of the source.

Legend:
[1] = biological target: T1, cyclooxygenase (Type 1), COX-I (Ovis aries, UniProt P05979); test: COX inhibition assay, purified cyclooxygenase; conditions: for COX-I inhibition: FIG. 5
T1 sequence (P05979 25-600): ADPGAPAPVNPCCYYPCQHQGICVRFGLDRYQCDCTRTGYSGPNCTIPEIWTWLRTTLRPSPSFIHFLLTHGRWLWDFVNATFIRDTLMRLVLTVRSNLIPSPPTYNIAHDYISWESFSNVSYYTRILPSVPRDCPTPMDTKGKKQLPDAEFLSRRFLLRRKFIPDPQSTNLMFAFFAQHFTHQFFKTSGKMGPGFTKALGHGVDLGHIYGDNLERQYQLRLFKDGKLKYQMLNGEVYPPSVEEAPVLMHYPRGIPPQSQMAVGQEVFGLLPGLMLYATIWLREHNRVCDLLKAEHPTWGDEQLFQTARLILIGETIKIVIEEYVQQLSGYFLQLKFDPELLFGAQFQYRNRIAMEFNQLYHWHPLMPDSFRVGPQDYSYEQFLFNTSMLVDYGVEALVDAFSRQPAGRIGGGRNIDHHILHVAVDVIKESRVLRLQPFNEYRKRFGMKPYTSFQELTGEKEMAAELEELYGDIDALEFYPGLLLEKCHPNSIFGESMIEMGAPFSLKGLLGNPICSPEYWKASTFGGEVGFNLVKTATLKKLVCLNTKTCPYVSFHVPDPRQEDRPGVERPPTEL

HT-29 cells [2] = test: Growth inhibition, SRB assay, HT-29; type: cell-based, human
[3] = test system: cGMP PDE from human colon HT-29 cultured tumor cells; test: cGMP PDE inhibition assay; type: biochemical
[4] = biological target: T2, cGMP binding sites of the GST-cGB-PDE5 Protein (Homo sapiens, UniProt O76074); test: cGMP binding assay with GST-cGB-PDE5 fusion protein; conditions: 3H-cGMP 2 μM
T2 construct: made in house; host or cells: E. coli BL21 (DE3)

[5] = biological target: T3, Peak A (PDE5) from SW480 cells (Homo sapiens, UniProt O76074); test: cGMP hydrolysis inhibition, PDE peak A from SW480; type: biochemical
T3 construct: To isolate the novel phosphodiesterase from SW480, approximately four hundred million SW480 cells were grown to confluence; endogenous in cells; host or cells: SW480 colon cancer cells; DEAE-Trisacryl M fraction (peak A)

[6] = biological target: T4, novel cGMP-specific PDE (Peak B) from SW480 cells (Homo sapiens, UniProt O00408); test: cGMP hydrolysis inhibition, novel PDE peak B (Section IA) from SW480; type: biochemical
T4 construct: IC50 Peak B (μM)
T4 sequence (O00408 2-941): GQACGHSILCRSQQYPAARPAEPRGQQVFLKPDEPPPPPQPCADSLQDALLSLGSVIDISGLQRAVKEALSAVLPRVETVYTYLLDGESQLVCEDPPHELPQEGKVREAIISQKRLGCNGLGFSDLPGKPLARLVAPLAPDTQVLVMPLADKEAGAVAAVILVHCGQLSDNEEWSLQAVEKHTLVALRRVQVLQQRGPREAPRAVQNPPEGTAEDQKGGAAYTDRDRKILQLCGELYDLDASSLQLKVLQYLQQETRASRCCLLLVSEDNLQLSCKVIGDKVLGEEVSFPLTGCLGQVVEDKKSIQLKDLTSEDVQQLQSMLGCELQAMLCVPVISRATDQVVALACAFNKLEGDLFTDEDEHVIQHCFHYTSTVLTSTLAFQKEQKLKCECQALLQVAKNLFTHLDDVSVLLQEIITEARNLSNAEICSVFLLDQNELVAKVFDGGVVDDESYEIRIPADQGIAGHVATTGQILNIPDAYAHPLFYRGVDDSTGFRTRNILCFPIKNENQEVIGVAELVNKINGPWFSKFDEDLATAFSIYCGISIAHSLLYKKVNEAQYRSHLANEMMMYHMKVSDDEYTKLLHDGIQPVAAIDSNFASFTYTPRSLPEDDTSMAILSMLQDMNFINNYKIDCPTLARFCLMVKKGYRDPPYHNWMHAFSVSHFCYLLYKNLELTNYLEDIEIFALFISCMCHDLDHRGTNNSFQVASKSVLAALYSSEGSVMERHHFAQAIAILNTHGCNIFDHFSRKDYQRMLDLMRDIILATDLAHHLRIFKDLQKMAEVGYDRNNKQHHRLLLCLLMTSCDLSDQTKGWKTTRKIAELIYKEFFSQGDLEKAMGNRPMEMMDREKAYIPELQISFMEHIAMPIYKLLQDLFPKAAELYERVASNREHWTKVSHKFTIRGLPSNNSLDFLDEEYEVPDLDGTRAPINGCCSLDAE

HT-29 cells [7] = test: cGMP and cAMP levels in HT-29 cells by radioimmunoassay; type: cell-based, human; conditions: HT-29 cells treated 30 minutes
HT-29 cells [8] = test: Apoptosis and necrosis by morphology (acridine orange, ethidium bromide) in HT-29; type: cell-based, human
Excerpt: Apoptosis occurs naturally during normal tissue turnover and during embryonic development of organs and limbs. Apoptosis also is induced by cytotoxic T-lymphocytes and natural killer cells, by ionizing radiation and by certain chemotherapeutic drugs. Inappropriate regulation of apoptosis is thought to play an important role in many pathological conditions including cancer, AIDS, or Alzheimer's disease, etc. Compounds can be screened for induction of apoptosis using cultures of tumor cells maintained under conditions as described above. Treatment of cells with test compounds involves either pre- or post-confluent cultures and treatment for two to seven days at various concentrations. Apoptotic cells are measured in both the attached and “floating” compartments of the cultures. […]
Apoptotic and necrotic cell death was determined previously (Duke and Cohen, In: Current Protocols in Immunology, 3.17.1 -3.17.16, New York, John Wiley and Sons, 1992). […]
The apoptosis inducing activity for a series of phosphodiesterase inhibitors was determined. […] Apoptosis and necrosis were determined morphologically after acridine orange and ethidium bromide labeling in accordance with the assay described, supra.

HT-29 cells [9] = test: Growth inhibition, viable cell count after trypan blue staining; type: cell-based, human; conditions: HT-29, 120 μM
Description: Growth inhibition (15A top) was measured by counting viable cells after trypan blue staining. Apoptosis (15B bottom) was measured by morphological determination following staining with acridine orange and ethidium bromide as described previously (Duke and Cohen, in: Current Protocols in Immunology, 3.17.1-3.17.16, New York, John Wiley and Sons, 1992). […] All data were collected from the same experiment.

[10] = test system: premalignant lesions in mouse mammary gland organ culture; test: Mammary gland organ culture model; type: cell-based
Excerpt: Test compounds identified by the above methods can be tested for antineoplastic activity by their ability to inhibit the incidence of pre-neoplastic lesions in a mammary gland organ culture system. This mouse mammary gland organ culture technique has been successfully used by other investigators to study the effects of known antineoplastic agents such as certain NSAIDs, retinoids, tamoxifen, selenium, and certain natural products, and is useful for validation of the screening method of the present invention.
For example, female BALB/c mice can be treated with a combination of estradiol and progesterone daily, in order to prime the glands to be responsive to hormones in vitro. The animals are sacrificed, and thoracic mammary glands are excised aseptically and incubated for ten days in growth media supplemented with insulin, prolactin, hydrocortisone, and aldosterone. DMBA (7,12 dimethylbenz(a)anthracene) is added to medium to induce the formation of premalignant lesions. Fully developed glands are then deprived of prolactin, hydrocortisone, and aldosterone, resulting in the regression of the glands but not the pre-malignant lesions.
The test compound is dissolved in DMSO and added to the culture media for the duration of the culture period. At the end of the culture period, the glands are fixed in 10% formalin, stained with alum carmine, and mounted on glass slides. The incidence of forming mammary lesions is the ratio of the glands with mammary lesions to […]. The incidence of mammary lesions in test compound treated glands is compared with that of the untreated glands.
The extent of the area occupied by the mammary lesions can be quantitated by projecting an image of the gland onto a digitation pad. The area covered by the gland is traced on the pad and considered as 100% of the area. The space covered by each of the non-regressed structures is also outlined on the digitization pad and quantitated by the computer.
Mammary gland organ culture experiment were performed as previously described (Mehta and Moon, Cancer Research, 46:5832-5835, 1986). […]

CC(=O)NC(CSC12CC(=O)OC1(C)/C(=C/c1ccc(S(C)(=O)=O)cc1)c1ccc(F)cc12)C(=O)O (racemic) [D, rac-(E)-1-(butan-1′,4′-olido)-[3′,4′:1,2]-6-fluoro-2-methyl-3-(p-methylsulfonylbenzylidene)-1S-indanyl-N-acetylcysteine]
COX % Inhibition at 100 μM [1]: <25% | Growth % Inhibition at 100 μM (HT-29 cells [2]): 78%

COc1cc(C=C2C(C)=C(CC(=O)O)c3cc(F)ccc32)cc(OC)c1OC [Compound B, (Z)-5-Fluoro-2-methyl-1-(3,4,5-trimethoxybenzylidene)-3-acetic acid]
cGMP PDE % Inhibition at 10 μM [3]: <25% | competition with cGMP in binding of GST-cGB-PDE5 [4]: None of the PDE5 inhibitors showed any competition with cGMP | COX-I inhibition [1]: neither test compound B and E significantly inhibit COX-I

CC1=C(CC(=O)O)c2cc(F)ccc2/C1=C\c1ccc(Cl)cc1 [Compound C, (Z)-5-Fluoro-2-methyl-1-(p-chlorobenzylidene)-3-acetic acid]
cGMP PDE % Inhibition at 10 μM [3]: <25% | Growth % Inhibition at 100 μM (HT-29 cells [2]): 80%

COc1cc(/C=C2/C(C)=C(CC(=O)NCc3ccccc3)c3cc(F)ccc32)cc(OC)c1OC [Compound E, (Z)-5-Fluoro-2-methyl-1-(3,4,5-trimethoxybenzylidene)-3-indenylacetamide, N-benzyl]
competitive (with cGMP) binding to PDE 5 (peak A) [5]: does competitively (with cGMP) bind to PDE 5 | cGMP PDE % Inhibition at 10 μM ([3]; 10 µM): 75% | competitive (with cGMP) binding to PDE peak B [6]: competitively (with cGMP) binds to PDE peak B | competition with cGMP in binding of GST-cGB-PDE5 [4]: None of the PDE5 inhibitors showed any competition with cGMP | COX-I inhibition [1]: neither test compound B and E significantly inhibit COX-I

Clc1cccc(Nc2nnc(-c3ccccc3)c3ccccc23)c1 [MY5445, 1-(3-chloroanilino)-4-phenyphthalazine, reference compound]
COX % Inhibition at 100 μM [1]: 94%

COc1ccc(C2CNC(=O)C2)cc1OC1CCCC1 (stereo not shown) [Rolipram]
levels of cAMP (HT-29 cells [7]): increased cAMP

CCCc1nn(C)c2c(=O)[nH]c(-c3cc(S(=O)(=O)N4CCN(C)CC4)ccc3OCC)nc12 [Sildenafil, reference compound]
inhibition of activity of peak A [5]: inhibited activity of peak A

CSc1ccc(/C=C2/C(C)=C(CC(=O)O)c3cc(F)ccc32)cc1 [Sulindac sulfide]
apoptosis, time course (HT-29 cells [8]; HT-29, 120 μM): accompanied by an increase in apoptosis | apoptotic and necrotic cell death (HT-29 cells [8]; HT-29, treated six days): capable of causing apoptotic cell death without inducing necrosis | cGMP PDE % Inhibition at 10 μM [3]: 97% | competition with cGMP in binding of GST-cGB-PDE5 [4]: None of the PDE5 inhibitors showed any competition with cGMP | increase of levels of cGMP (HT-29 cells [7]): greater than 50% | levels of cAMP (HT-29 cells [7]): unaffected | growth inhibition, viable cell count time course (HT-29 cells [9]): capable of inhibiting tumor cell growth | inhibition of formation of premalignant lesions [10]: inactive

CCCOc1ccccc1-c1nc2nn[nH]c2c(=O)[nH]1 [Zaprinast]
competition with cGMP in binding of GST-cGB-PDE5 [4]: None of the PDE5 inhibitors showed any competition with cGMP

CC1=C(CC(=O)O)c2cc(F)ccc2/C1=C\c1ccc([S+](C)[O-])cc1 (stereo not shown) [sulindac]
inhibition of formation of premalignant lesions [10]: effectively inhibit the formation of premalignant lesions
